{"source": "patent US8084499B2", "about": "“Modified clay mineral” (Ajinomoto Co., Inc., priority 2006, dated 2011)"}
{"assay": "Emulsion stability (B-type viscometer, 60 rpm viscosity / 6 rpm viscosity)", "conditions": "emulsion compositions similar to Example 1, compound of formula (1) with given R1/R2 instead of cocoylarginine ethyl ester", "description": "A B-type (Brookfield type) viscometer (manufactured by TOKYO KEIKI, DIGITAL VISCOMETER DVL-B) was used. About 100 ml of each emulsion composition was placed in a glass vial container, a rotor was appropriately selected, and the value obtained at a room temperature condition of 25° C., number of rotation of 6 or 60 rpm after 30 seconds was taken as the measurement value at each number of rotation. The measurement value at 60 rpm was divided by the measurement value at 6 rpm, and 0.10 to 0.19 was rated as ⊙, 0.20 to 0.29 was rated as ◯, 0.30 to 0.39 was rated as Δ, and not less than 0.40 was rated as x."}
{"smiles": "CCCCCCCCCCCC(=O)NC(CCCNC(=N)N)C(=O)OCC", "note": "(stereo not shown) [lauric acid residue / ethyl group, N-lauroylarginine ethyl ester cation]", "emulsion stability, rating": "⊙ (0.10 to 0.19 was rated as ⊙)"}
{"smiles": "CCCCCCCCCCCC(=O)NC(CCCNC(=N)N)C(=O)OCC(C)C", "note": "(stereo not shown) [lauric acid residue / isobutyl group, N-lauroylarginine isobutyl ester cation]", "emulsion stability, rating": "⊙ (0.10 to 0.19 was rated as ⊙)"}
{"smiles": "CCCCCCCCCCCC(=O)N[C@@H](CCCNC(=N)N)C(=O)OC(C)C", "note": "[lauric acid residue / isopropyl group, N-lauroylarginine isopropyl ester cation]", "emulsion stability, rating": "⊙ (0.10 to 0.19 was rated as ⊙)"}
{"smiles": "CCCCCCCCCCCC(=O)NC(CCCNC(=N)N)C(=O)OC(C)CC", "note": "(stereo not shown) [lauric acid residue / s-butyl group, N-lauroylarginine s-butyl ester cation]", "emulsion stability, rating": "⊙ (0.10 to 0.19 was rated as ⊙)"}
{"smiles": "CCCCCCCC/C=C\\CCCCCCCC(=O)NC(CCCNC(=N)N)C(=O)OCC", "note": "(stereo not shown) [oleic acid residue / ethyl group, N-oleylarginine ethyl ester cation]", "emulsion stability, rating": "⊙ (0.10 to 0.19 was rated as ⊙)"}
{"smiles": "CCCCCCCCCCCCCCCC(=O)NC(CCCNC(=N)N)C(=O)OCC", "note": "(stereo not shown) [palmitic acid residue / ethyl group, N-palmitoylarginine ethyl ester cation]", "emulsion stability, rating": "⊙ (0.10 to 0.19 was rated as ⊙)"}
{"smiles": "CCCCCCCCCCCCCCCCCC(=O)N[C@@H](CCCNC(=N)N)C(=O)OCC", "note": "[stearic acid residue / ethyl group, N-stearoylarginine ethyl ester cation]", "emulsion stability, rating": "⊙ (0.10 to 0.19 was rated as ⊙)"}
